Activity calls are given as the source filed them.
What was measured:
Ephrin type-A receptor 4 = Ephrin type-A receptor 4 (Mus musculus, UniProt Q03137); test: inhibitors of EphA4 binding to KYL peptide, primary screen, biochemical, colorimetric, mouse EphA4 (AID 689); type: functional
Vero = test: host cell cytotoxicity of antiviral hits, dose response, cytotoxicity control for West Nile virus antiviral project, secondary assay (AID 1650); type: functional; conditions: Chlorocebus sabaeus
INS1 = test: beta cell apoptosis inhibitors, cytokine rescue, dose response, luminescence, retest (AID 449756); type: functional, cell-based; conditions: Rattus norvegicus;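 also: cell death triggered by IL-1 beta plus TNF-alpha plus IFN-gamma mixture; protective hits raise ATP signal compared with cytokine alone wells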
[1] = enhancers of respiration in Yfh1-depleted yeast, dose response, Friedreich's ataxia, plus single-dose screen (AID 1465); type: functional;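 also: yeast depleted of Yfh1p frataxin homolog grown on glycerol needing respiration; WST-1 tetrazolium dye reduction as measure of cellular dehydrogenase metabolic activity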
[2] = M. tuberculosis growth inhibition, HTS (AID 449762); type: functional
[3] = molecular target: Sphingosine 1-phosphate receptor 5 (Homo sapiens, UniProt Q9H228); test: Late stage counterscreen assay for S1P4 antagonists: Fluorescence dose response cell-based screening assay for antagonists of the Sphingosine 1-Phosphate Receptor 5 (S1P5). [Related pubchem assays (depositor defined):AID1510, AID1524, AID1692, AID1853, AID2332, AID489009, AID489017]; type: functional
[4] = molecular target: Sphingosine 1-phosphate receptor 3 (Homo sapiens, UniProt Q99500); test: Late stage counterscreen assay for S1P4 antagonists: Fluorescence dose response cell-based screening assay for antagonists of the Sphingosine 1-Phosphate Receptor 3 (S1P3). [Related pubchem assays (depositor defined):AID1510, AID1524, AID1692, AID1853, AID2332, AID489009, AID489017]; type: functional
[5] = molecular target: T1, Sphingosine 1-phosphate receptor 1 (Homo sapiens, UniProt P21453); test: Late stage counterscreen assay for S1P4 antagonists: Fluorescence dose response cell-based screening assay for antagonists of the Sphingosine 1-Phosphate Receptor 1 (S1P1). [Related pubchem assays (depositor defined):AID1510, AID1524, AID1692, AID1853, AID2332, AID489009, AID489017]; type: functional
[6] = molecular target: Sphingosine 1-phosphate receptor 2 (Homo sapiens, UniProt O95136); test: Late stage counterscreen assay for S1P4 antagonists: Fluorescence dose response cell-based screening assay for antagonists of the Sphingosine 1-Phosphate Receptor 2 (S1P2). [Related pubchem assays (depositor defined):AID1510, AID1524, AID1692, AID1853, AID2332, AID489009, AID489017]; type: functional
[7] = molecular target: T2, Sphingosine 1-phosphate receptor 4 (Homo sapiens, UniProt O95977); test: Late stage fluorescence dose response cell-based screening assay for antagonists of the Sphingosine 1-Phosphate Receptor 4 (S1P4). [Related pubchem assays: 1524 (Confirmation screen (S1P4 antagonists).), 1510 (Primary screen (S1P4 antagonists).), 1853 (Summary AID (S1P4 antagonists).), 1692 (Dose response screen (S1P4 antagonists).)]; type: functional
T2 sequence (O95977 whole entry): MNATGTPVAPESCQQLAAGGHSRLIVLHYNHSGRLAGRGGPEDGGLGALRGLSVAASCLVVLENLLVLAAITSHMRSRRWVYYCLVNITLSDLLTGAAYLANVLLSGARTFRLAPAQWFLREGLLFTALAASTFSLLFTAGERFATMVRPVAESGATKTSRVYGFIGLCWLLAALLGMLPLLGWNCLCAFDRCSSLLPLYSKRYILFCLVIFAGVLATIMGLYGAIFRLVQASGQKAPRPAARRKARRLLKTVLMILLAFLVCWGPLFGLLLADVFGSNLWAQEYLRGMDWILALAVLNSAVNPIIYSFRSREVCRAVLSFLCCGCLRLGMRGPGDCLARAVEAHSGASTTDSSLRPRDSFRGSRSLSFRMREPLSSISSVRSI

[8] = molecular target: T2, Sphingosine 1-phosphate receptor 4; test: Fluorescence dose response cell-based high throughput screening assay for antagonists of the Sphingosine 1-Phosphate Receptor 4 (S1P4). [Related pubchem assays: 1524 (Confirmation in triplicates.), 1510 (Primary screen.)]; type: functional
[9] = molecular target: T1, Sphingosine 1-phosphate receptor 1; type: functional
Leucine aminopeptidase = molecular target: T3, Leucine aminopeptidase (Plasmodium falciparum 3D7, UniProt Q8IL11); test: P. falciparum M17LAP inhibitors, primary screen, biochemical, fluorogenic H-Leu-NHMec substrate, 1536-well (AID 1619); type: functional
T3 sequence (Q8IL11 whole entry): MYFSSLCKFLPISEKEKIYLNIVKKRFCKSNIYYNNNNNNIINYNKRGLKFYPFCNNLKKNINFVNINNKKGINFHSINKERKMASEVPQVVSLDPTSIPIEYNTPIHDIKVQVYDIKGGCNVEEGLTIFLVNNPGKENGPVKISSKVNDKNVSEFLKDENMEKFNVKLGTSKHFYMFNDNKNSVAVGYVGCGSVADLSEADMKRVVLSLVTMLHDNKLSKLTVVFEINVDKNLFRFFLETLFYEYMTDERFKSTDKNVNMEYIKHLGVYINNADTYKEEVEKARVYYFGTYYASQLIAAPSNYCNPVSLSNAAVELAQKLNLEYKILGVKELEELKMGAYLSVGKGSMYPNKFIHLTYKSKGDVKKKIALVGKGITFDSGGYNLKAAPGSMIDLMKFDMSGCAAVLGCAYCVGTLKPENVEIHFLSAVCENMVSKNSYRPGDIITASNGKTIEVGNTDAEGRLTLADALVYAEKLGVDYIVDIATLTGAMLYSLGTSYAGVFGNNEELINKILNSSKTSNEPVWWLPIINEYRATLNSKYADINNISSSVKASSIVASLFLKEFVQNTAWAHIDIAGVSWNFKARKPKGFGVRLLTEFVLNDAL

[10] = molecular target: Solute carrier family 12 member 2/member 5 (Homo sapiens, UniProt P55011+Q9H2X9); test: KCC2 and NKCC1 inhibition by rubidium flux, cell-based, NKCC1 counter-screen (AID 1734); type: functional, HEK293
NADPH oxidase 1 = NADPH oxidase 1 (Homo sapiens, UniProt Q9Y5S8); test: Late-stage luminescence-based cell-based dose response assay to identify inhibitors of NADPH oxidase 1 (NOX1): Synthesized analogs 2.; type: functional
NADPH oxidase 1, sequence (Q9Y5S8 whole entry): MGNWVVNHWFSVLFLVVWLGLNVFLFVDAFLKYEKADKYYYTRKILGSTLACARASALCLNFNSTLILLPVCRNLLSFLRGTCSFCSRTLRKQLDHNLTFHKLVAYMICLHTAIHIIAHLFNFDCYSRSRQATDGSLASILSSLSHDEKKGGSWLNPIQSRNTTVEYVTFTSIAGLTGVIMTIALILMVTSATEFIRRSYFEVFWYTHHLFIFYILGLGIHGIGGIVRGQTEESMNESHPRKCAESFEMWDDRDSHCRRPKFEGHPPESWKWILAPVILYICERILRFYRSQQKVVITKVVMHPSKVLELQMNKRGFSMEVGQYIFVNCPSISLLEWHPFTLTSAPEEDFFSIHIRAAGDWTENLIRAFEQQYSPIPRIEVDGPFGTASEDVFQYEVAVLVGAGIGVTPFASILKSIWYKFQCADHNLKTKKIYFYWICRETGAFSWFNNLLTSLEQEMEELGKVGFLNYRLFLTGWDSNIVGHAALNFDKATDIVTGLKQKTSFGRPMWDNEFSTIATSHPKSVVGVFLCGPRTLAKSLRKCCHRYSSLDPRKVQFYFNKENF

T1 sequence (P21453 whole entry): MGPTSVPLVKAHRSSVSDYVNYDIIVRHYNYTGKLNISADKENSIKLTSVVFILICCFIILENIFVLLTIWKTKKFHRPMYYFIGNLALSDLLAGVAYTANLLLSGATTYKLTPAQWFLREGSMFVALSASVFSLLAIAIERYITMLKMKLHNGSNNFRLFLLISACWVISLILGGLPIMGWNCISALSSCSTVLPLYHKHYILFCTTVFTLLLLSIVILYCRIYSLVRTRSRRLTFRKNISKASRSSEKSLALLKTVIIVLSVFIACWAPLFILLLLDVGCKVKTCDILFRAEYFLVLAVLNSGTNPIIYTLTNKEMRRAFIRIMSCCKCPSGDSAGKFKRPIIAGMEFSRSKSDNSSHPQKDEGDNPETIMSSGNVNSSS
Ephrin type-A receptor 4, sequence (Q03137 whole entry): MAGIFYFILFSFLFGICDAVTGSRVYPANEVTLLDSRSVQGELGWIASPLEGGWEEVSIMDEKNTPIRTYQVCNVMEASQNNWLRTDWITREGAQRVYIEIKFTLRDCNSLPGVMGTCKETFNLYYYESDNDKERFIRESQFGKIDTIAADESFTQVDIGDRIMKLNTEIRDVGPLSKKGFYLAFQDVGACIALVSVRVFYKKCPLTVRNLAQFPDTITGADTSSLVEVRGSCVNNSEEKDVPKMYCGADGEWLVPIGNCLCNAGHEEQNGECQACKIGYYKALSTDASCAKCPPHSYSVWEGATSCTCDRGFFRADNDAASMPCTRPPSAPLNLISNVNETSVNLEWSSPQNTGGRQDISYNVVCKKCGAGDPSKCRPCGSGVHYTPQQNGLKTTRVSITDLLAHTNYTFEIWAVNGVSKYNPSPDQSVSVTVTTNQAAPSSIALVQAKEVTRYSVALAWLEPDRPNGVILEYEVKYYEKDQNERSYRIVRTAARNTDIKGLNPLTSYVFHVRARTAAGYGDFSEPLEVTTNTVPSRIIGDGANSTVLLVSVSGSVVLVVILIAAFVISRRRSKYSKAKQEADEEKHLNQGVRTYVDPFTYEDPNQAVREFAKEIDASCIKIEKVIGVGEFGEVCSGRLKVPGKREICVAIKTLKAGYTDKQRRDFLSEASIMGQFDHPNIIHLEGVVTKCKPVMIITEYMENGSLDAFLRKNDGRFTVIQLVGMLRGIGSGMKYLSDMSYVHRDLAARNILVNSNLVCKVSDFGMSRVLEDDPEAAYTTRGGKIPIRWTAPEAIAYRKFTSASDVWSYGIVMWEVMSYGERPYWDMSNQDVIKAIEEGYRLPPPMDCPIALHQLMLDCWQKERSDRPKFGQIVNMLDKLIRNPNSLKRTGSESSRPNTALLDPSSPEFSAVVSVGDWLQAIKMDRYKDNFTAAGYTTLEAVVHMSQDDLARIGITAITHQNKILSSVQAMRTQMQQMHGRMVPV
Sphingosine 1-phosphate receptor 5, sequence (Q9H228 whole entry): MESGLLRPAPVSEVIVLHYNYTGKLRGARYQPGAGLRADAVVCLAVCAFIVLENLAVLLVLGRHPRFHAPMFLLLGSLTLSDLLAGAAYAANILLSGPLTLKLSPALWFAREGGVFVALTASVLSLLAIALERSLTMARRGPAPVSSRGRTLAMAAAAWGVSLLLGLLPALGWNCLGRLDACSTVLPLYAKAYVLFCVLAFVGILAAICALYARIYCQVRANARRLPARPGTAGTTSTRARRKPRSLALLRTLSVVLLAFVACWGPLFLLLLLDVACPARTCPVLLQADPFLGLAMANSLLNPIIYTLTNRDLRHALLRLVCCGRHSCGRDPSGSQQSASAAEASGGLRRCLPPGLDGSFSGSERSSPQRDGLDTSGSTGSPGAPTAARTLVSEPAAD
Sphingosine 1-phosphate receptor 3, sequence (Q99500 whole entry): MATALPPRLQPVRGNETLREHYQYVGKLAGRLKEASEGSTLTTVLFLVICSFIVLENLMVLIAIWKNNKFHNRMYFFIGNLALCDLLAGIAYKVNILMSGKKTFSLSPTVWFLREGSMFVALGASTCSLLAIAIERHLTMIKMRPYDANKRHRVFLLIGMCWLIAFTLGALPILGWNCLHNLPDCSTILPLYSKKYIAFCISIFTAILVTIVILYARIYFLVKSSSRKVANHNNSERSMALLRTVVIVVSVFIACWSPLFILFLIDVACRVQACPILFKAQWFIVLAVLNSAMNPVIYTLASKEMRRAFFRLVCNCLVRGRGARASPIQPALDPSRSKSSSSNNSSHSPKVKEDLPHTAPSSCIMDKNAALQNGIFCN
Sphingosine 1-phosphate receptor 2, sequence (O95136 whole entry): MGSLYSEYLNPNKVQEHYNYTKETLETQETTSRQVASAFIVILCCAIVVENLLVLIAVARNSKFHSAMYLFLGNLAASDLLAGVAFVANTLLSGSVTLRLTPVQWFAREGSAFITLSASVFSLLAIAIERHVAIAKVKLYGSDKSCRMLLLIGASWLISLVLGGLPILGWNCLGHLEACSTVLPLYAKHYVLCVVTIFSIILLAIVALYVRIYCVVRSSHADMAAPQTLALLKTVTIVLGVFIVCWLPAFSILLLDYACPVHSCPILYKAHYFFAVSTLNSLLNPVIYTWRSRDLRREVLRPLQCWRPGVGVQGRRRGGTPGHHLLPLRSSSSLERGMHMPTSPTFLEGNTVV

CCn1c2ccc(Cl)cc2c2nc3ccccc3nc21
IC50 (Ephrin type-A receptor 4): 18.2 µM (active)

CC1=NN(c2nc(-c3ccc(C)cc3)cs2)C(=O)C1N=Nc1ccc(C(N)=O)cc1 (stereo not given)
CC50 (Vero): 6.04 µM (active)
AC50 (INS1): 2.53 µM (active)

CCOC(=O)/C(=C\C=C1/Sc2ccccc2N1CC)C(C)=O
EC50 [1]: > 100 µM (active)

CC(C)c1ccc2[nH]c(O)c(N=NC(=O)c3ccc(CSc4nncn4C)cc3)c2c1
IC50 [2]: > 100 µM (active)

Cc1cc(NC(=O)/C=C/c2ccccc2)c(C(C)C)cc1O
IC50 [3]: > 25 µM (inactive)
IC50 [4]: > 25 µM (inactive)
IC50 [5]: > 25 µM (inactive)
IC50 [6]: > 25 µM (inactive)
IC50 [7]: 0.338 µM (active)
IC50 [8]: 0.852 µM (active)
IC50 [9]: > 49.8 µM (not active)

Cc1ccc(Nc2nnc(SCC(=O)c3cc4ccccc4o3)s2)cc1C
IC50 (Leucine aminopeptidase): 19.8 µM (active)
IC50 [10]: 0.64 µM (active)

CN1c2ccc(N=[N+]=[N-])cc2Sc2cc(N=[N+]=[N-])ccc21
IC50 (NADPH oxidase 1): 7.05 µM (active)

— ChEMBL document CHEMBL1201862, “PubChem BioAssay data set” (2004)
